Data published in patent US20120045505A1, “FIXED DOSE DRUG COMBINATION FORMULATIONS” (Dr. Reddy's Laboratories, Inc., priority 2004, published 2012).

Columns and labels:
[1] = Storage stability of capsules in closed HDPE bottles at 40° C. and 75% relative humidity for 6 months: drug content and drug-related impurities; assay type: physicochemical
Protocol: Capsules prepared above are stored in closed high-density polyethylene (HDPE) bottles at 40° C. and 75% relative humidity for 6 months, and are analyzed for drug content and the levels of drug-related impurity formation.
Capsules prepared above are stored in closed HDPE bottles at 40° C. and 75% relative humidity for 6 months, and are analyzed for drug content and the levels of drug-related impurities.

[2] = In vitro dissolution of capsules, USP Type 1 (Basket) apparatus, 900 mL medium, 100 rpm; assay type: physicochemical
Protocol: Dissolution profiles for drugs in capsules prepared above are determined in various media using the USP procedure and the following conditions: Type 1 (Basket) apparatus; 900 mL medium; and 100 rpm rotation. Values in the following tables are cumulative percentages of the specified drug that dissolves in the specified times. […]

[3] = Example 3 capsule, 6 Months at 40° C. and 75% relative humidity, closed HDPE bottles
[4] = Example 3 capsule, 6 Months, 40° C./75% RH
[5] = Example 4 capsule, 6 Months at 40° C. and 75% relative humidity, closed HDPE bottles
[6] = Example 4 capsule, 6 Months, 40° C./75% RH, capsule containing hydrochlorothiazide
[7] = Example 4 capsule, Initial, capsule containing hydrochlorothiazide
[8] = Example 3 capsule, 0.1N HCl, 30 Minutes
[9] = Example 3 capsule, 0.1N HCl, 60 Minutes
[10] = Example 3 capsule, pH 2.1 SGF, 30 Minutes
[11] = Example 3 capsule, pH 2.1 SGF, 60 Minutes
[12] = Example 3 capsule, pH 4.5 Acetate buffer USP, 30 Minutes
[13] = Example 3 capsule, pH 4.5 Acetate buffer USP, 60 Minutes
[14] = Example 4 capsule, 0.1N HCl, 30 Minutes
[15] = Example 4 capsule, 0.1N HCl, 60 Minutes
[16] = Example 4 capsule, pH 2.1 SGF, 30 Minutes
[17] = Example 4 capsule, pH 2.1 SGF, 60 Minutes
[18] = Example 4 capsule, pH 4.5 Acetate buffer USP, 30 Minutes
[19] = Example 4 capsule, pH 4.5 Acetate buffer USP, 60 Minutes
[20] = Example 4 capsule, 6 Months, 40° C./75% RH
[21] = Example 4 capsule, pH 6.8 Phosphate buffer USP, 30 Minutes
[22] = Example 4 capsule, pH 6.8 Phosphate buffer USP, 60 Minutes

SMILES	Assay (drug content) [1, 3]	Assay (drug content) ([1]; Example 3 capsule, Initial)	Assay (drug content) [1, 5]	Assay (drug content) ([1]; Example 4 capsule, Initial)	cumulative percentage of drug dissolved [2, 8] [%]	cumulative percentage of drug dissolved [2, 9] [%]	cumulative percentage of drug dissolved [2, 10] [%]	cumulative percentage of drug dissolved [2, 11] [%]	cumulative percentage of drug dissolved [2, 12] [%]	cumulative percentage of drug dissolved [2, 13] [%]	cumulative percentage of drug dissolved [2, 14] [%]	cumulative percentage of drug dissolved [2, 15] [%]	cumulative percentage of drug dissolved [2, 16] [%]	cumulative percentage of drug dissolved [2, 17] [%]	cumulative percentage of drug dissolved [2, 18] [%]	cumulative percentage of drug dissolved [2, 19] [%]	cumulative percentage of drug dissolved [2, 21] [%]	cumulative percentage of drug dissolved [2, 22] [%]	further results
CC(C)NCC(O)COc1ccc(CC(N)=O)cc1 (stereo not drawn) [Atenolol]	98.7 % of label content	100.3 % of label content	–	–	–	–	–	–	–	–	–	–	–	–	–	–	–	–	–
CC(=O)Oc1ccccc1C(=O)O [Aspirin]	101.5 % of label content	100.3 % of label content	101.3 % of label content	101.2 % of label content	96	98	99	100	88	89	96	98	99	100	88	89	–	–	Impurity: Salicylic acid [1, 4]: 0.68 % of label content; Impurity: Salicylic acid ([1]; Example 3 capsule, Initial): 0.17 % of label content; Impurity: Salicylic acid [1, 6]: 0.31 % of label content; Impurity: Salicylic acid [1, 7]: 0.13 % of label content; cumulative percentage of drug dissolved ([2]; Example 3 capsule, 0.01N HCl, 30 Minutes): 87%; cumulative percentage of drug dissolved ([2]; Example 3 capsule, 0.01N HCl, 60 Minutes): 89%; cumulative percentage of drug dissolved ([2]; Example 4 capsule, 0.01N HCl, 30 Minutes): 87%; cumulative percentage of drug dissolved ([2]; Example 4 capsule, 0.01N HCl, 60 Minutes): 89%
NS(=O)(=O)c1cc2c(cc1Cl)NCNS2(=O)=O [Hydrochlorothiazide]	–	–	99.3 % of label content	99.5 % of label content	–	–	–	–	–	–	100	100	88	98	91	97	82	85	Impurity: CTZ [1, 20]: 0.04 % of label content; Impurity: DSA [1, 20]: 0.07 % of label content; Impurity: CTZ ([1]; Example 4 capsule, Initial): 0.04 % of label content; Impurity: DSA ([1]; Example 4 capsule, Initial): 0.04 % of label content
NCCCC[C@H](N[C@@H](CCc1ccccc1)C(=O)O)C(=O)N1CCC[C@H]1C(=O)O [Lisinopril]	98.7 % of label content	98.5 % of label content	99.0 % of label content	97.8 % of label content	97	96	102	105	97	96	100	100	95	98	100	102	94	95	Impurity: RSS isomer [1, 4]: 0.12 % of label content; Impurity: SSS DKP [1, 4]: 0.009 % of label content; Impurity: RSS isomer ([1]; Example 3 capsule, Initial): 0.09 % of label content; Impurity: RSS isomer [1, 6]: 0.09 % of label content; Impurity: SSS DKP [1, 6]: 0.33 % of label content; Impurity: RSS isomer [1, 7]: 0.09 % of label content; Impurity: SSS DKP [1, 7]: 0.05 % of label content; cumulative percentage of drug dissolved ([2]; Example 3 capsule, pH 6.5 SIF, 30 Minutes): 92%; cumulative percentage of drug dissolved ([2]; Example 3 capsule, pH 6.5 SIF, 60 Minutes): 97%; cumulative percentage of drug dissolved ([2]; Example 3 capsule, pH 6.8 Phosphate buffer USP, 30 Minutes): 96%; cumulative percentage of drug dissolved ([2]; Example 3 capsule, pH 6.8 Phosphate buffer USP, 60 Minutes): 96%
